# Measurements: PMC2970562, “High-Affinity Inhibitors of Human NAD^+-Dependent 15-Hydroxyprostaglandin Dehydrogenase: Mechanisms of Inhibition and Structure-Activity Relationships” (PLoS ONE, 2010)
# Read-outs that look alike come from different tables or passages of the source.
# Tests used:
# [1] = biological target: T1, ALDH1A1 (Homo sapiens, UniProt P00352); assay: Selectivity screen, aldehyde dehydrogenase 1 (PubChem Assay ID 1030); format: biochemical
# T1 sequence (P00352 1-501): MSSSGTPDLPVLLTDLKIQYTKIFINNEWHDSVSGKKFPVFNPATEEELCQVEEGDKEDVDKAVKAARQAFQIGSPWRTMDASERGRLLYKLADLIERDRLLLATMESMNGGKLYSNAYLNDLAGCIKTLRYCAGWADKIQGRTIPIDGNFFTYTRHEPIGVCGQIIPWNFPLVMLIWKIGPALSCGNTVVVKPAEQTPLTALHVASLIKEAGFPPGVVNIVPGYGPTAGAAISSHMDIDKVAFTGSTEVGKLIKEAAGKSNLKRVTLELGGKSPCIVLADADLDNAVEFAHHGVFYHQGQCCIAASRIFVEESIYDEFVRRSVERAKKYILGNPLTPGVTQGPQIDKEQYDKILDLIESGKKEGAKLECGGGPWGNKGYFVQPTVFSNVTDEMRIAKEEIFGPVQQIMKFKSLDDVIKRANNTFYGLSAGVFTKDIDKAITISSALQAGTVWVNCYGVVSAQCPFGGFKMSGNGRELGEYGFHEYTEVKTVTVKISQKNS
# Protocol: (§1) The list also includes two SDR enzymes, hydroxyacyl dehydrogenase (HADH2, also known as type-10 hydroxysteroid dehydrogenase, HSD17β10; PubChem Assay ID 886) and type-4 hydroxysteroid dehydrogenase (HSD17β4; PubChem Assay ID 893), and a medium-chain dehydrogenase/reductase (MDR), aldehyde dehydrogenase 1 (ALDH1A1; PubChem Assay ID 1030), each of which was tested using a similar experimental protocol to that used for 15-PGDH.
# [2] = biological target: T2, HSD17β4 (Homo sapiens, UniProt P51659); assay: Selectivity screen, type-4 hydroxysteroid dehydrogenase (PubChem Assay ID 893)
# T2 sequence (P51659 1-736): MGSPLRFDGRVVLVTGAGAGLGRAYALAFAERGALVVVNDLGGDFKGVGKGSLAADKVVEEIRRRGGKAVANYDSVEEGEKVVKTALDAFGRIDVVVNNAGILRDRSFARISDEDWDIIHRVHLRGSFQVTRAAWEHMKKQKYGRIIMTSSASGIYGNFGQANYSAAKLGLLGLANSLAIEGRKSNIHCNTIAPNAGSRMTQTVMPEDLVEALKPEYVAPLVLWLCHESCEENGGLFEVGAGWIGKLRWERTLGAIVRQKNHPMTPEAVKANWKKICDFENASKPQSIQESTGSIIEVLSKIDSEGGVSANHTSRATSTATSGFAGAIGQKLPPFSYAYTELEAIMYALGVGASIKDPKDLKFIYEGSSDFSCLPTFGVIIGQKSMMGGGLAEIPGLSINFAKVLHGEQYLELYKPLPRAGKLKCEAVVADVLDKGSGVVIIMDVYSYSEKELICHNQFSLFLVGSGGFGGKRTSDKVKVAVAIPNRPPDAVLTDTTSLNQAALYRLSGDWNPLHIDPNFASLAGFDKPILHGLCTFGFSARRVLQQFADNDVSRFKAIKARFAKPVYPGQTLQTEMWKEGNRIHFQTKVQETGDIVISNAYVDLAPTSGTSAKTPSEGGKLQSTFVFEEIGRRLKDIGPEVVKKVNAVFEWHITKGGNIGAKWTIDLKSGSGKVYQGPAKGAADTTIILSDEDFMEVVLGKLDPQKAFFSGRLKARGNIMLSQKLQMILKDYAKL
# Protocol: as §1
# [3] = biological target: T3, human 15-PGDH (Homo sapiens, UniProt P15428); assay: Differential scanning fluorimetry (DSF), thermal stabilization; format: binding; conditions: for ∆Tm [°C] NAD+: with 200 µM NAD+; for ∆Tm [°C] NAD+ / ∆Tm [°C] NADH / ∆Tm [°C] apo: 1 µM protein, compound 50 or 250 µM, N/A = no unfolding transition observed in DSF; for ∆Tm [°C] NADH: with 200 µM NADH; for ∆Tm [°C] apo: without cofactor
# T3 construct: comprising residues 3–256 of the human HPGD gene (GenBank identifier: 1203982); His6 (GHHHHHH, behind the TEV site) (C, cleaved yes); made in house; host or cells: E. coli BL21(DE3)-R3
# T3 sequence (P15428 3-256): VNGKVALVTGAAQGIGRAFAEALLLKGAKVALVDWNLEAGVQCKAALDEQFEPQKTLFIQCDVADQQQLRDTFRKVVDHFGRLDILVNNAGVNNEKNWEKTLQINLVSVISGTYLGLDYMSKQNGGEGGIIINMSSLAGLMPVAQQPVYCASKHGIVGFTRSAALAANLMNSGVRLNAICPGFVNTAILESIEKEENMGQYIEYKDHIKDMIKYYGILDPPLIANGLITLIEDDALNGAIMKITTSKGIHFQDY
# [4] = biological target: T4, HADH2 (HSD17β10) (Homo sapiens, UniProt Q99714); assay: Selectivity screen, hydroxyacyl dehydrogenase (PubChem Assay ID 886)
# T4 sequence (Q99714 1-261): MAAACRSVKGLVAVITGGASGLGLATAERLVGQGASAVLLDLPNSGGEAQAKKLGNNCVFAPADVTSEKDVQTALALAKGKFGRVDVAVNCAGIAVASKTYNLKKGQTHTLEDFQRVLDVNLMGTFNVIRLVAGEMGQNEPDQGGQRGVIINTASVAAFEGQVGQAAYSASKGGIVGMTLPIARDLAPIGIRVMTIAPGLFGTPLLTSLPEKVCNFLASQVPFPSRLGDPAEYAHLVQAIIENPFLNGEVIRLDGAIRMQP
# Protocol: as §1
# [5] = top concentration 57.5 µM, PubChem Assay ID 1030, read-out: IC50/nM ALDH1A1
Structure (SMILES),"Emax ([1]; ALDH1A1, footnote of Table 3, read-out: Maximal response, inhibition) [%]","IC50 ([1]; ALDH1A1, shallow curve, read-out: approximate IC50) [nM]","IC50 [1, 5] [nM]",IC50 [2] [µM],ΔTm in the presence of NAD+ [3] [°C],ΔTm in the presence of NADH [3] [°C],∆Tm [°C] NAD+ [3] [°C],∆Tm [°C] NADH [3] [°C],∆Tm [°C] apo [3] [°C],IC50 [4] [µM],response against ALDH1A1 ([1]; in words)
"Cc1cccc(-n2cnc3cc(C(=O)N4CCCCC4)ccc32)c1 [Compound 13, [1-(3-methylphenyl)-1H-benzimidazol-5-yl)(piperidin-1-yl)methanone]",70,~36000,36000,> 57.5,7.3±0.2,13.5±0.9,7.3,13.5,-1.7,> 57.5,–
Cc1cc(-c2nnc3n2CCCCC3)c(C)n1-c1ccccc1 [Compound 72],–,–,> 57500,> 57.5,–,–,5.0,10.5,0.1,> 57.5,flat response
